Read-outs that look alike come from different tables or passages of the source. Where a SMILES comes first, the peptide text is derived from it. [ ]: non-standard residue; d: D form. Nspe = C[C@H](NCC(=O)O)c1ccccc1; NhArg = N=C(N)NCCCCNCC(=O)O; Nlys = NCCCCNCC(=O)O
Columns and labels:
Format in all cases: cell-based
[1] = tested on: E. coli (ATCC 29522) biofilm; assay: Single species biofilm treatment, crystal violet assay; conditions: 100 μM peptoid, 24 hours, FIG. 17C
Method: C. albicans (NCTC 3179) was subcultured aerobically on Sabouraud agar plates and propagated in yeast peptone dextrose broth. E. coli (ATCC 29522) and S. aureus (NCTC 6571) were grown on blood agar plates and propagated in brain heart infusion (BHI) broth.
Overnight cultures of C. albicans were washed and resuspended in a modified RPMI-1640 (Sigma-Aldrich, St Louis, USA) medium to yield an inoculum of 1.0×10^6 cells/ml. Overnight cultures of S. aureus or E. coli were washed and resuspended in brain heart infusion broth (Oxoid, Basingstoke, UK) to yield an inoculum of 5.0×10^6 cells/ml. A total volume of 100 μl of each inoculum was added to microtitre plate wells (Thermo Fisher Scientific, Roskilde, Denmark). An initial biofilm was allowed to form for 4 hours. Wells were washed three times with 200 μl PBS to facilitate removal of planktonic cells and the biofilms were then treated with 100 μM of peptoids 1-4 in the appropriate broth. Plates were incubated for a further 24 hours to allow biofilm maturation. After removal of planktonic cells by washing, biofilms were quantified by the crystal violet assay or by PMA-qPCR.
Biofilm quantification by crystal violet assay Washed biofilms were fixed with 100 μl methanol for 10 minutes. Following removal of methanol, the wells were air dried and stained with crystal violet solution (Clin-Tech Ltd, Guildford, UK) for 20 minutes at room temperature. Excess stain was removed by washing, the plate was then air dried and bound crystal violet was re-solubilised in 16 μl 33% acetic acid prior to reading at 570 nm in a microtitre plate reader (Tecan GENios, Ziirich, Switzerland).

[2] = tested on: Staphylococcus aureus NCTC 6571
Method: (§1) Species used in MIC assays included gram-negative Escherichia coli K12 W3110, Pseudomonas aeruginosa laboratory strain PAO2 and Serratia marcescens laboratory strain and gram-positive Staphylococcus aureus NCTC 6571 and Micrococcus luteus laboratory strain.
(§2) Bacterial cultures were prepared by streaking the bacterial strains on to agar plates with an inoculation loop and incubating overnight at 37° C. A single colony was then selected and placed in 5 mL of Iso-Sensitest broth using an inoculation loop and incubated at 37° C. with shaking overnight.
(§3) MIC values were attained according to the protocol described by J. M. Andrews et al. [J. M. Andrews, J. Antimicrob. Chemother., 2001, 48, 5-16] and were conducted in 96-well microtitre plates in triplicate. 10-50 μL of each overnight culture was inoculated into 1.2 mL of Iso-Sensitest broth and grown at 37° C. with shaking. […] The inoculum was diluted ten-fold with Iso-Sensitest broth before use (to ˜10^3 cfu/spot). Peptide solutions were initially dissolved in DMSO (5 mg mL^−1) and then diluted further with Iso-Sensitest broth to achieve a concentration range of 4 mgL^−1 to 512 mgL^−1 using 2-fold serial dilutions. Samples were vortexed between dilutions where necessary to aid dissolution. 50 μL of inoculum and 50 μL of peptide solution were added to each test well to achieve a final concentration range of 2 mgL^−1 to 256 mgL^−1. Separate dilutions of ampicillin and DMSO were made up in a similar manner to act as a positive antibacterial control and a +DMSO control, respectively. 50 μL of inoculum and 50 μL of Iso-Sensitest broth were used as a positive control and 100 μL of inoculum was used as a negative control. Positive and negatives controls were conducted multiple times in parallel per plate. […] Quantitative data were attained as A650nm values using a BioTek® Synergy™ H4 Hybrid Multi-Mode Microplate Reader.

[3] = tested on: Escherichia coli K12 W3110
Method: as §1, §2, §3

[4] = tested on: Pseudomonas aeruginosa laboratory strain PAO2
Method: as §1, §2, §3

[5] = tested on: Serratia marcescens laboratory strain; conditions: 16 h
Method: as §1, §2, §3

[6] = tested on: Leishmania mexicana (M379)
Method: Leishmania mexicana (M379) promastigote parasites were maintained at 26° C. in Schneider's Insect medium (Sigma-Aldrich) supplemented with heat-inactivated foetal bovine sera (FBS, 15%; Biosera Ltd). Cells were counted using a Neubauer Improved Haemocytometer. Promastigotes were transformed into axenic amastigotes by a pH and temperature shift as previously described. A culture of recently transformed (three days) promastigotes in the late log phase was transferred into Schneider's Insect medium supplemented with 20% heat-inactivated FBS (pH 5.5) at 5×10^5 parasites/mL. After 6 days, the parasites were in the metacyclic stage and used for transformation to amastigote-like forms by transfer in the same medium at 32° C. at 5×10^5 parasites/mL. After additional 5-7 days, the parasites should be in the amastigote stage and be ready for cytotoxicity studies and infections.
Cytotoxicity analyses were performed in 96-well plates (Costar, Fisher Scientific) using Alamar Blue (Invitrogen) for cell viability detection as previously described.
Promastigote and amastigote L. mexicana were pre-incubated with the compounds in triplicate (5 mM stock solutions in DMSO; Amphotericin B was used as a positive control; untreated parasites with DMSO as a negative control) in 50 μl of the corresponding media at 4×106 mL-1 for 1 hour. Afterwards, 40 μl were removed from each well before the addition of 90 μl of the corresponding media, followed by incubation for 24 hours at 4×105 mL-1. Then, 10 μl Alamar Blue solution (Invitrogen) was added to each well for an incubation of 4 hours prior to assessing cell viability using a fluorescent plate reader (Biotek; Ex 560 nm/Em 600 nm). To investigate the effects of serum on the efficacy of the peptoids, the assay described above was modified using serum-free medium for the pre-incubation time. For these assays, the parasites were washed three times in serum-free medium before adding them to the compound solutions. All of the experiments described above were carried out on a minimum of two separate occasions to ensure a robust data set was collected.

[7] = second figure of cell, 37° C., 16 h, Iso-Sensitest broth

C[C@@H](c1ccccc1)N(CC(N)=O)C(=O)CN(C(=O)CN(CCCCN)C(=O)CN(C(=O)CN(C(=O)CN(CCCCN)C(=O)CN(C(=O)CN(C(=O)CN(CCCCNC(=N)N)C(=O)CN(C(=O)CN(C(=O)CNCCCCNC(=N)N)[C@@H](C)c1ccccc1)[C@@H](C)c1ccccc1)[C@@H](C)c1ccccc1)[C@@H](C)c1ccccc1)[C@@H](C)c1ccccc1)[C@@H](C)c1ccccc1)[C@@H](C)c1ccccc1 [Peptoid 2, (NhArg-Nspe-Nspe)2(NLys-Nspe-Nspe)2] (H-[NhArg][Nspe][Nspe][NhArg][Nspe][Nspe][Nlys][Nspe][Nspe][Nlys][Nspe][Nspe]-NH2; N-terminus assumed)
activity against the E. coli biofilm [1]: strongest anti-bacterial activity
MIC S. aureus ([2]; NCTC 6571, 16 h): 17 µM
MIC S. aureus [2, 7]: 32 mgL^−1
MIC E. coli ([3]; K12, 16 h): 17 µM
MIC E. coli [3, 7]: 32 mgL^−1
MIC P. aeruginosa ([4]; laboratory strain PAO2, 16 h): 17 µM
MIC P. aeruginosa [4, 7]: 32 mgL^−1
MIC S. marcescens ([5]; laboratory strain): 134 µM
MIC S. marcescens ([5]; second figure of cell, 37° C., Iso-Sensitest broth): 256 mgL^−1
IC50 ([6]; parasite stage not given, read-out: IC50 L. mexicana): 34 µM
active against L. mexicana ([6]; statement in words): active

From patent US20180201647A1, “Peptoid” (The University of Durham, priority 2015, published 2018)
